Data: patent publication US8907080B2, “Process for imparting water solubility or water dispersibility to hydrophobic cluster compound” (Daiso Co., Ltd., priority 2009, dated 2014)

Assays:
[1] = Solubilization of single-walled carbon nanotube; type: physicochemical; conditions: in water; estimated from absorbance at 500 nm
Procedure: Preliminary dispersion was performed by dispersing 1.0 mg of a single-walled carbon nanotube (SWNT) (Carbon Nanotechnology, Inc.) in 0.5 mL of DMSO, and performing ultrasonic irradiation. An amount of 1.0 mL of AQUA β (DAISO Co., Ltd.) in a DMSO solution (2.0 mg/mL) was added and ultrasonic irradiation was further performed for 1 hour. The obtained dispersion was added to 1.5 mL of distilled water. To the dispersion, 35 mL of distilled water was further added and the solution was allowed to stand for one day to renature the AQUA β. It was observed by visual inspection that the solution was uniform at that point. Centrifugation (8,000 rpm, 60 minutes) was performed to recover the complex as a precipitate, the supernatant was removed, and the precipitate was redispersed in distilled water. This procedure was repeated 3 times for removal of uncombined polysaccharides and replacement of the solvent with water. Thus a solution in which the SWNT was dispersed in 5 mL of distilled water was obtained.
From the absorbance at 500 nm (Abs500=0.575), the concentration of the dissolved SWNT is estimated at […]. […] The improvement in the dispersibility seems to be attributed to the fact that AQUA β has a higher proportion of side chains than sizofuran.

[2] = Water solubilization of m-carborane by high speed vibration milling; type: physicochemical
Procedure: m-carborane was mixed with AQUA β (DAISO Co., Ltd.) or sizofuran (SPG) (Mitsui Sugar Co., Ltd.) in the predetermined amounts shown in Table 3 below. The mixture was placed with an agate milling ball in an agate milling jar, and high speed milling was performed with a mixer mill (MM200, Retsch Co., Ltd.) at 25 Hz for 25 minutes. Next, 10,000 parts by weight of water was added to 1 part by weight of the mixture, and the mixture was stirred with a magnetic stirrer at room temperature for two days and further agitated with a vortex mixer for 2 hours. Centrifugation (25° C., 14,000 rpm, 20 minutes) was performed, and the supernatant was filtrated through a 0.45 μm membrane filter. The boron concentration of the filtrate was measured with an ICP atomic emission spectrometer for evaluation of the degree of water solubility.

| Substance | Concentration of the dissolved SWNT [1] [µg/mL] | Boron concentration relative to solution prepared using sizofuran [2] [times] |
| --- | --- | --- |
| sizofiran | 2500 |  |
| β-1,3-1,6-D-glucan [AQUA β] |  | ≥ 3 |
